Measured values published in patent US9266814B2, “Use of nitrooxy organic molecules in feed for reducing methane emission in ruminants, and/or to improve ruminant performance” (DSM IP ASSETS B.V., priority 2010, dated 2016).
“And” between values parts separate entries of the source, which are not always exact repeats. Identical values can stand only once. Like-named read-outs stand apart in the source and are kept apart here. Marks after values point to notes of the source that are not given here.

Legend:
[1] = test system: methanogenesis in rumen liquor; assay: In vitro test for methane production (modified Hohenheim Forage value Test); assay type: cell-based; conditions: for inhibition at 0.5 % / inhibition at 2 % / inhibition at 0.005 % / inhibition at 0.01 % / inhibition at 0.05 % / inhibition at 0.1 % / inhibition at 1 %: read-out: effect on methanogenesis (%)
[2] = test system: methane emissions by sheep; assay type: in vivo
[3] = test system: volatile fatty acid profile and ammonia N concentration in the rumen; assay type: in vivo, sheep
[4] = test system: methanogenic archaea (mcrA gene); assay type: in vivo, sheep
[5] = test system: total bacteria (16S rRNA); assay type: in vivo, sheep
protozoa (18S rRNA) = assay type: in vivo, sheep
[6] = test system: methane production of dairy cows; set-up: species or system Holstein X Friesian dairy cows; conditions: in vivo
[7] = sheep, 100 mg per animal and day via ruminal cannula, day 14
[8] = sheep, 100 mg per animal and day via ruminal cannula, day 29
[9] = sheep, 100 mg per animal and day via ruminal cannula, day 30
[10] = sheep, 100 mg per animal and day via ruminal cannula, days 29-30 pooled
[11] = rumen of sheep, samples of days 29 and 30, 100 mg per animal and day
[12] = rumen of sheep, 100 mg per animal and day
[13] = rumen of sheep, mcrA gene qPCR, 100 mg per animal and day
[14] = rumen of sheep, 16S rRNA qPCR, 100 mg per animal and day
[15] = rumen of sheep, 18S rRNA qPCR, 100 mg per animal and day
[16] = 8 h, comparative example, 0.1% DM, average of two experiments

O=[N+]([O-])OCC(CCc1ccccc1)O[N+](=O)[O-] (racemic) [Compound 2, rac-4-Phenylbutane-1,2-diyl dinitrate]
inhibition at 0.5 % ([1]; 8 h): 4% | inhibition at 2 % ([1]; 8 h): 10%

CCOC(=O)CCO[N+](=O)[O-] [Additive 1, ethyl-3-nitrooxypropionate, reference compound]
CH4 l, day [2, 7]: 21.9 l, day | CH4 l/kg intake [2, 7]: 25.6 l/kg intake | CH4 l, day [2, 8]: 20.9 l, day | CH4 l/kg intake [2, 8]: 21.7 l/kg intake | CH4 l, day [2, 9]: 21.8 l, day | CH4 l/kg intake [2, 9]: 23.2 l/kg intake | CH4 l, day [2, 10]: 21.5 l, day | CH4 l/kg intake [2, 10]: 22.6 l/kg intake | reduction of methane emissions (liters per kg of fresh matter intake) against the control ([2]; sheep, 100 mg per animal and day, day 14): 14% | Acetate [3, 11]: 67.5^b mol/100 mol | Butirate [3, 11]: 2.05 mol/100 mol | C2/C3 (acetate to propionate ratio) [3, 11]: 4.09^a | Propionate [3, 11]: 16.6^a mol/100 mol | Total (volatile fatty acids) [3, 11]: 58.2 | Valerate [3, 11]: 1.94 mol/100 mol | iso-butirate [3, 11]: 10.1 mol/100 mol | iso-valerate [3, 11]: 1.79 mol/100 mol | Archaea ΔCt (relative abundance in relation to total bacteria) [4, 12]: 0.022 | Archaea [4, 13]: 2.86 * 10^8 copy gene numbers/g fresh matter | Archaea log 10 [4, 13]: 8.45 log copy gene numbers/g fresh matter | Total bacteria [5, 14]: 9.08 * 10^10 copy gene numbers/g fresh matter | Total bacteria log 10 [5, 14]: 10.9 log copy gene numbers/g fresh matter | Total protozoa ΔCt (relative abundance in relation to total bacteria) (protozoa (18S rRNA); [12]): 1.58 | Total protozoa (protozoa (18S rRNA); [15]): 1.87 * 10^10 copy gene numbers/g fresh matter | Total protozoa log 10 (protozoa (18S rRNA); [15]): 10.2 log copy gene numbers/g fresh matter

O=[N+]([O-])OCCCO [Compound 1, 3-Nitrooxypropanol]
CH4 l, day ([2]; in vivo): 18.3 l, day and 19.7 l, day and 19.1 l, day and 20.0 l, day | CH4 l/kg intake ([2]; in vivo): 22.5 and 19.6 and 25.6 and 23.1 | reduction of methane emissions (liters per kg of fresh matter intake) against the control ([2]; in vivo): 23% | Acetate ([3]; in vivo): 64.5^a mol/100 mol | Butirate ([3]; in vivo): 2.11 mol/100 mol | C2/C3 (acetate to propionate ratio) ([3]; in vivo): 3.89^a | Propionate ([3]; in vivo): 17.5^b mol/100 mol | Total (volatile fatty acids) ([3]; in vivo): 57.1 | Valerate ([3]; in vivo): 1.82 mol/100 mol | iso-valerate ([3]; in vivo): 1.82 mol/100 mol | Archaea ([4]; in vivo): 2.86 * 10^8 copy gene numbers/g fresh matter | Archaea log 10 ([4]; in vivo): 8.34 log copy gene numbers/g fresh matter | Archaea ΔCt (relative abundance in relation to total bacteria) ([4]; in vivo): 0.020 | Total bacteria ([5]; in vivo): 9.74 * 10^10 copy gene numbers/g fresh matter | Total bacteria log 10 ([5]; in vivo): 11.0 log copy gene numbers/g fresh matter | inhibition at 0.005 % ([1]; 8 h): 20% | inhibition at 0.01 % ([1]; 8 h): 79% | inhibition at 0.05 % ([1]; 8 h): 100% | inhibition at 0.1 % ([1]; 8 h): 100% | inhibition at 0.5 % ([1]; 8 h): 100% | inhibition at 2 % ([1]; 8 h): 100% | CH4, L/d [6]: 555 L/day and 536 L/day | CH4, L/kg DMI [6]: 29.9 L/kg DMI and 29.2 L/kg DMI | CH4, g/d [6]: 398 g/day and 384 g/day | Total protozoa (protozoa (18S rRNA); in vivo): 2.51 * 10^10 copy gene numbers/g fresh matter | Total protozoa log 10 (protozoa (18S rRNA); in vivo): 10.2 log copy gene numbers/g fresh matter | Total protozoa ΔCt (relative abundance in relation to total bacteria) (protozoa (18S rRNA); in vivo): 1.55

CCNS(=O)(=O)CCCO[N+](=O)[O-] [Compound 4, N-Ethyl-3-nitrooxy-propionic sulfonyl amide]
inhibition at 0.05 % ([1]; 8 h): 10% | inhibition at 0.1 % ([1]; 8 h): 24% | inhibition at 0.5 % ([1]; 8 h): 99% | inhibition at 2 % ([1]; 8 h): 99%

CCC(=O)OCCCO[N+](=O)[O-] [Compound 7, 3-Nitrooxy-propyl propionate]
inhibition at 0.005 % ([1]; 8 h): 6% | inhibition at 0.01 % ([1]; 8 h): 21% | inhibition at 0.05 % ([1]; 8 h): 100% | inhibition at 0.1 % ([1]; 8 h): 100%

O=C(OCCCO[N+](=O)[O-])c1ccccc1 [Compound 11, 3-Nitrooxy-propyl benzoate]
inhibition at 0.01 % ([1]; 8 h): 11% | inhibition at 0.1 % ([1]; 8 h): 99% | inhibition at 1 % ([1]; 8 h): 99%

CCCCCC(=O)OCCCO[N+](=O)[O-] [Compound 12, 3-Nitrooxy-propyl hexanoate]
inhibition at 0.01 % ([1]; 8 h): 42% | inhibition at 0.1 % ([1]; 8 h): 99% | inhibition at 1 % ([1]; 8 h): 98%

O=[N+]([O-])OCc1ccccc1 [Compound 14, Benzylnitrate]
inhibition at 0.05 % ([1]; 8 h): 3% | inhibition at 0.1 % ([1]; 8 h): 37% | inhibition at 0.5 % ([1]; 8 h): 100% | inhibition at 2 % ([1]; 8 h): 100%

O=C(NCCO[N+](=O)[O-])c1cccnc1 [Compound 16, N-[2-(Nitrooxy)ethyl]-3-pyridinecarboxamide]
inhibition at 1 % ([1]; 1% DM, reduction in methane vs control, 8 hours at 39° C., average of two experiments): 100%

O=[N+]([O-])[O-].[Na+] [Na NO3, reference compound]
effect on methanogenesis (%) ([1]; comparative example, 0.5% DM, average of two experiments): 2% | effect on methanogenesis (%) ([1]; comparative example, 2% DM, average of two experiments): 23%

O=[N+]([O-])CCCO [reference compound]
inhibition at 0.1 % [1, 16]: 2%

COCCCO [reference compound]
inhibition at 0.1 % [1, 16]: 8%

CCOC(=O)CCO [reference compound]
inhibition at 0.1 % [1, 16]: 6%
